Data on 25 compounds can be found in PubChem BioAssay (NCI).

Molecules are shown by their SMILES.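 Growth conditions: 96-well plates. Treatment: test compound, 48 hours, 5 concentrations. Analysis: linear interpolation between bracketing concentrations; unreached endpoints set to highest concentration. Here, GI50 denotes the concentration required for 50% inhibition of growth. TGI is the concentration that stops growth completely.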

The test system of the first assay is SK-MEL-5 melanoma. Put plainly: NCI anticancer screen, dose series, 48 h.
Compound `NCC1CCN(c2nc3ccccc3c3c2CCCC3)CC1` showed a TGI of 7.62 µM.

`CCN(CC)CCc1c2c(nc3ccccc13)C(=O)c1cccnc1C2=O`: the TGI came out at 1.34 µM.

Compound `Cc1c(F)c(N)c2c(=O)cc(-c3ccc(NC(=O)CN(C)C)c(F)c3)oc2c1F` displayed a TGI above 100 µM.

As to `COc1ccccc1Nc1nc(N)nc(N)c1N=O`, the TGI was above 100 µM.

Regarding `COc1cccc2c(N)c3cccc(C(=O)NCCN(C)C)c3nc12`, the TGI was 2.08 µM.

Turning to `O=C(CCCCCCCCC(=O)NN1C(=O)/C(=C\c2ccc(O)c(O)c2)SC1c1ccc(Cl)cc1)NN1C(=O)/C(=C\c2ccc(O)c(O)c2)SC1c1ccc(Cl)cc1` (stereo not drawn), the TGI is above 100 µM.

As for `O=C1/C(=C/c2ccccc2)N=C(c2ccccc2)N1n1c(-c2ccccc2)nc2ccccc2c1=O`, the TGI was above 100 µM.

Compound `O=C(O)c1c2c(cc3c1CC1(Cc4ccccc4C1)C3)CCC2` had a TGI above 100 µM.

`Cc1nnc2n1N=C(c1cc(F)c(Cl)cc1Cl)/C(=C/c1ccc(Cl)cc1)S2` yielded a TGI of 41.3 µM.

`CC(O[Si](c1ccccc1)(c1ccccc1)C(C)(C)C)[C@H](NC(=O)OC(C)(C)C)C(=O)O[Si](c1ccccc1)(c1ccccc1)C(C)(C)C` (stereo partly drawn): the TGI was determined as 30.9 µM.

The compound `COc1ccc(-c2cc(-c3ccco3)c(C#N)c(=S)n2C2OC(COC(C)=O)C(OC(C)=O)C(OC(C)=O)C2OC(C)=O)cc1` (stereo not drawn) returned a TGI of 22.8 µM.

Regarding `CCCCN1C(=O)CC2[C@@H]3CCc4cc(OC(C)=O)ccc4C3CC[C@]2(C)C1=O` (stereo partly drawn), the TGI is above 10 µM.

For a further assay, the system named is SNB-75 CNS. Put plainly: NCI anticancer screen, dose series, 48 h.
On to `COc1ccc(C2CC(c3c(O)ccc4ccccc34)=NN2c2ccc([N+](=O)[O-])cc2[N+](=O)[O-])cc1OC` (stereo not drawn), for which the TGI was 70.8 µM.

In turn, `C=C1CC(COc2cc(=O)oc3ccccc23)(c2ccccc2)OC1=O` (stereo not drawn) registered a TGI of 12.3 µM.

`O=C(O)CSc1nnc(COc2ccc(Cl)cc2)n1-c1ccccc1` gave a TGI above 100 µM.

Compound `CN(C)CCCOc1nc2c(c(=O)n(C)c(=O)n2C)n1C` (tested in a mixture with another compound) yielded a TGI above 100 µM.

For the compound `C[N+]1=C2[B-](C(C)(C)C)=[N+](C(C)(C)C)[B-]2(C(C)(C)C)[N+](C)=C2[B-](C(C)(C)C)=[N+](C(C)(C)C)[B-]21C(C)(C)C` (stereo not drawn), the TGI was above 100 µM.

As to `Brc1ccc(CCNCCN2CCCCC2)cc1`, the TGI stood at 26.3 µM.

Consider `OC1C2[C@@H](O)CCCN2C[C@@H](O)[C@H]1O` (stereo partly drawn), for which the TGI was above 100 µM.

The compound `COCOC1/C=C/CCCC#C[C@H](C)C(=O)CC1` (stereo partly drawn) returned a TGI of 25.3 µM.

Consider `COc1ccc2[nH]c(O)c(/C=c3/cc4c(c(-c5cc(OC)c(OC)c(OC)c5)n3)=Nc3ccccc3-4)c2c1`, for which the GI50 is 26.7 µM and the TGI was above 100 µM.

As to `CC[C@]1(Cc2ccc(OC)c(OC)c2)CN(S(=O)(=O)c2ccc(C)cc2)C[C@@H]1OC(C)=O`, the TGI was above 100 µM.

Compound `CC(C)(C)c1ccc2c(c1)CNCCNCc1cc(C(C)(C)C)ccc1OCC1(CO2)COc2ccc(C(C)(C)C)cc2CNCCNCc2cc(C(C)(C)C)ccc2OC1` yielded a TGI of 2.96 µM.

With `NCC1CCN(c2nc3ccccc3c3c2CCCC3)CC1`, the TGI is 22.2 µM.

`CCN(CC)CCc1c2c(nc3ccccc13)C(=O)c1cccnc1C2=O` returned a TGI of 16.7 µM.

Turning to `Cc1c(F)c(N)c2c(=O)cc(-c3ccc(NC(=O)CN(C)C)c(F)c3)oc2c1F`, the GI50 is 32.9 µM and the TGI is above 100 µM.

`COc1ccccc1Nc1nc(N)nc(N)c1N=O` came in with a TGI above 100 µM.

Compound `COc1cccc2c(N)c3cccc(C(=O)NCCN(C)C)c3nc12` returned a TGI of 0.362 µM.

In the case of `O=C(CCCCCCCCC(=O)NN1C(=O)/C(=C\c2ccc(O)c(O)c2)SC1c1ccc(Cl)cc1)NN1C(=O)/C(=C\c2ccc(O)c(O)c2)SC1c1ccc(Cl)cc1` (stereo not drawn), the TGI was above 100 µM.

The compound `O=C1/C(=C/c2ccccc2)N=C(c2ccccc2)N1n1c(-c2ccccc2)nc2ccccc2c1=O` yielded a TGI above 100 µM.

In the case of `Oc1ccc(/C=C/c2cc(O)cc(O)c2)cc1`, the TGI was above 100 µM.

On to `O=C(O)c1c2c(cc3c1CC1(Cc4ccccc4C1)C3)CCC2`, for which the TGI is above 100 µM.

In turn, `Cc1nc(-c2ccc([N+](=O)[O-])cc2)cn2c1nc1ccccc12` yielded a TGI of 69 µM.

Compound `CC(O[Si](c1ccccc1)(c1ccccc1)C(C)(C)C)[C@H](NC(=O)OC(C)(C)C)C(=O)O[Si](c1ccccc1)(c1ccccc1)C(C)(C)C` (stereo partly drawn) gave a TGI of 29 µM.

On to `COc1ccc(-c2cc(-c3ccco3)c(C#N)c(=S)n2C2OC(COC(C)=O)C(OC(C)=O)C(OC(C)=O)C2OC(C)=O)cc1` (stereo not drawn), for which the TGI came out at 17.7 µM.

The test system of a further assay is U251 CNS. In words: NCI anticancer screen, dose series, 48 h.
Compound `COc1ccc(C2CC(c3c(O)ccc4ccccc34)=NN2c2ccc([N+](=O)[O-])cc2[N+](=O)[O-])cc1OC` (stereo not drawn) displayed a TGI above 100 µM.

Regarding `C=C1CC(COc2cc(=O)oc3ccccc23)(c2ccccc2)OC1=O` (stereo not drawn), the TGI worked out at 25.3 µM.

`O=C(O)CSc1nnc(COc2ccc(Cl)cc2)n1-c1ccccc1` displayed a TGI above 100 µM.

Take `CN(C)CCCOc1nc2c(c(=O)n(C)c(=O)n2C)n1C` (tested in a mixture with another compound): the TGI is above 100 µM.

Regarding `C[N+]1=C2[B-](C(C)(C)C)=[N+](C(C)(C)C)[B-]2(C(C)(C)C)[N+](C)=C2[B-](C(C)(C)C)=[N+](C(C)(C)C)[B-]21C(C)(C)C` (stereo not drawn), the TGI is above 100 µM.

In turn, `Brc1ccc(CCNCCN2CCCCC2)cc1` displayed a TGI of 32.4 µM.

Compound `OC1C2[C@@H](O)CCCN2C[C@@H](O)[C@H]1O` (stereo partly drawn) displayed a TGI above 100 µM.

In the case of `COCOC1/C=C/CCCC#C[C@H](C)C(=O)CC1` (stereo partly drawn), the TGI is 24.8 µM.

Take `COc1ccc2[nH]c(O)c(/C=c3/cc4c(c(-c5cc(OC)c(OC)c(OC)c5)n3)=Nc3ccccc3-4)c2c1`: the GI50 was 3.53 µM and the TGI is above 100 µM.

Consider `CC[C@]1(Cc2ccc(OC)c(OC)c2)CN(S(=O)(=O)c2ccc(C)cc2)C[C@@H]1OC(C)=O`, for which the TGI was above 100 µM.

In turn, `CC(C)(C)c1ccc2c(c1)CNCCNCc1cc(C(C)(C)C)ccc1OCC1(CO2)COc2ccc(C(C)(C)C)cc2CNCCNCc2cc(C(C)(C)C)ccc2OC1` returned a TGI of 0.479 µM.

`NCC1CCN(c2nc3ccccc3c3c2CCCC3)CC1` yielded a TGI of 16.2 µM.

`CCN(CC)CCc1c2c(nc3ccccc13)C(=O)c1cccnc1C2=O` gave a TGI of 20 µM.

In turn, `Cc1c(F)c(N)c2c(=O)cc(-c3ccc(NC(=O)CN(C)C)c(F)c3)oc2c1F` had a TGI above 81.1 µM.

For the compound `COc1ccccc1Nc1nc(N)nc(N)c1N=O`, the TGI was above 100 µM.

The compound `COc1cccc2c(N)c3cccc(C(=O)NCCN(C)C)c3nc12` returned a TGI of 1.57 µM.

For the compound `O=C(CCCCCCCCC(=O)NN1C(=O)/C(=C\c2ccc(O)c(O)c2)SC1c1ccc(Cl)cc1)NN1C(=O)/C(=C\c2ccc(O)c(O)c2)SC1c1ccc(Cl)cc1` (stereo not drawn), the TGI is above 55.1 µM.

Regarding `O=C1/C(=C/c2ccccc2)N=C(c2ccccc2)N1n1c(-c2ccccc2)nc2ccccc2c1=O`, the TGI was above 100 µM.

Turning to `Oc1ccc(/C=C/c2cc(O)cc(O)c2)cc1`, the TGI is above 100 µM.

Compound `O=C(O)c1c2c(cc3c1CC1(Cc4ccccc4C1)C3)CCC2` had a TGI above 100 µM.

As to `Cc1nc(-c2ccc([N+](=O)[O-])cc2)cn2c1nc1ccccc12`, the TGI is above 100 µM.

As to `Cc1nnc2n1N=C(c1cc(F)c(Cl)cc1Cl)/C(=C/c1ccc(Cl)cc1)S2`, the TGI is 38.5 µM.

As for `CC(O[Si](c1ccccc1)(c1ccccc1)C(C)(C)C)[C@H](NC(=O)OC(C)(C)C)C(=O)O[Si](c1ccccc1)(c1ccccc1)C(C)(C)C` (stereo partly drawn), the TGI is 31.7 µM.

In turn, `COc1ccc(-c2cc(-c3ccco3)c(C#N)c(=S)n2C2OC(COC(C)=O)C(OC(C)=O)C(OC(C)=O)C2OC(C)=O)cc1` (stereo not drawn) came in with a TGI of 17.8 µM.

Consider `CCCCN1C(=O)CC2[C@@H]3CCc4cc(OC(C)=O)ccc4C3CC[C@]2(C)C1=O` (stereo partly drawn), for which the TGI is above 10 µM.
